Results from US7736630B2, “Products for preventing penetration into the skin” (priority 2002, dated 2010).
Like-named read-outs stand apart in the source and are kept apart here.

Test: Skin permeation and skin accumulation in Franz diffusion cells
Type: in vitro ADME, nude mice (CD1)
Description: The permeation of pure OMC and Di(4-methoxycinnamoyl)jojobadiol (two —OH groups esterified) was measured by using dorsal skin of male, 7 weeks old, nude mice (CD1, Weizmann Institute, Israel).
The experiments were carried out for 24 hours at 37° C. in Franz diffusion cells. Samples of 200 μl were taken at 1, 2, 4, 6, 8 and 24 hours. 10 mg of each compound were applied on each skin (area—1.77 cm^2). The receiver compartment contained EtOH:H2O (1:1). At the end of the experiment the skin was cleaned and the skins were extracted with 10 ml EtOH. The amounts of the OMC and derivative Di(4-methoxycinnamoyl)jojobadiol were assayed by HPLC.

Row | penetration/permeation across the skin (in words) | amount penetrated as % of the dose applied on the skin (male, CD1 nude, mouse, 24 h) [%] | amount which penetrated into the skin at the end of permeation experiment (male, CD1 nude, mouse, 24 h) [µg] | amount accumulated in the skin at the end of experiment (10 mg on 1.77 cm^2 skin, 24 hours, 37° C., skin extracted with 10 ml EtOH, FIG. 7) [µg] | penetration/permeation across the skin (in words) (24 hours in vitro permeation, lowest detectable concentration of the derivative by HPLC 0.8 μg/ml, FIG. 6) | penetration/permeation across the skin (in words) (24 hours in vitro permeation, lowest detectable concentration of the derivative by HPLC 0.8 μg/ml, FIG. 6, listed as di(4-methoxy-cinnamoyl)jojobadiol) | skin accumulation, OMC compared with Di(4-methoxycinnamoyl)jojobadiol (end of 24 hours experiment, FIG. 7) | Molecule
1 | permeates to the skin | 8.76 | 876 ± 235 |  |  |  |  | CCCCC(CC)COC(=O)C=Cc1ccc(OC)cc1 (stereo not shown) [OMC, octylmethoxycinnamate, reference compound]
2 |  |  |  | 900 ± 359 | no penetration | does not | about third of the amount of the OMC | Di(4-methoxycinnamoyl)jojobadiol
